# Tests used:
# [1] = target: T1, Adenosine receptor A1 (Bos taurus) (UniProt P28190); assay: Percentage inhibition of [3H]CHA binding to adenosine A1 receptor in bovine cerebral cortical membranes at 20 uM; format: cell membranes
# T1 sequence (whole entry): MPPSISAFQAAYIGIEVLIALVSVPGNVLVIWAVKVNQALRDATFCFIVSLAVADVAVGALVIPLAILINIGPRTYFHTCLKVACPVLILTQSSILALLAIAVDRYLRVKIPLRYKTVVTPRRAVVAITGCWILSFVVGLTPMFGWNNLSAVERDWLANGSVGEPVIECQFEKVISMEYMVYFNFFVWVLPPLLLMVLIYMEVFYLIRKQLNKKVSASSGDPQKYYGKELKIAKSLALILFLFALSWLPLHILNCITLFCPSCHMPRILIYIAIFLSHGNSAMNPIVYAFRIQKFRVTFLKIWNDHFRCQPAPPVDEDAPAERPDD
# [2] = target: T2, Adenosine receptor A3 (Homo sapiens, UniProt P0DMS8); assay: Displacement of [125I]AB-MECA from human adenosine A3 receptor expressed in CHO cells; format: cell-based
# T2 sequence (P0DMS8 whole entry): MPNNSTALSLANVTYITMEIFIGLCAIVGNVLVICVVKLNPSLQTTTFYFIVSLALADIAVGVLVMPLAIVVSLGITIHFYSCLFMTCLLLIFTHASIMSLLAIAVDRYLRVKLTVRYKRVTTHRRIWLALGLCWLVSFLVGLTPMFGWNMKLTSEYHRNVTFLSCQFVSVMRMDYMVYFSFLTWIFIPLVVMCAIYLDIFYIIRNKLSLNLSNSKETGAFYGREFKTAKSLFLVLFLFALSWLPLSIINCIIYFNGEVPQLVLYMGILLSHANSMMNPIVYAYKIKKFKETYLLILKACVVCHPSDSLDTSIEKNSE
# [3] = tested on: Adenosine receptor A2a (Bos taurus); assay: Percentage inhibition of [3H]CGS 21680 binding to adenosine A2A receptor in bovine striatal membranes at 20 uM; settings: Striatum, Membrane
# [4] = target: T3, Adenosine receptor A1 (Homo sapiens) (UniProt P30542); assay: Percentage inhibition of [3H]CHA binding to cloned human adenosine A1 receptor expressed in CHO cells at 10 uM; format: cell-based
# T3 sequence (whole entry): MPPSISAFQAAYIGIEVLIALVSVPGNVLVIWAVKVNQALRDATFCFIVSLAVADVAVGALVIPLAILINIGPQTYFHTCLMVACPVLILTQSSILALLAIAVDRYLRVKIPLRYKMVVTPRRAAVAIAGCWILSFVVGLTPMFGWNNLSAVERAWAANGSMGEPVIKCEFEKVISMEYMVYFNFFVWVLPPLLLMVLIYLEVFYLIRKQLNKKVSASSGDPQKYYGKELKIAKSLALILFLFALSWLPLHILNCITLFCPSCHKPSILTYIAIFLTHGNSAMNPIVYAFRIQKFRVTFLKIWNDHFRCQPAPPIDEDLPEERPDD
# [5] = target: Adenosine receptor A2a (Homo sapiens) (UniProt P29274); assay: Percentage inhibition of [3H]NECA binding to cloned human adenosine A2A receptor expressed in CHO cells at 10 uM; format: cell-based
# Adenosine receptor A2a (Homo sapiens), sequence (P29274 whole entry): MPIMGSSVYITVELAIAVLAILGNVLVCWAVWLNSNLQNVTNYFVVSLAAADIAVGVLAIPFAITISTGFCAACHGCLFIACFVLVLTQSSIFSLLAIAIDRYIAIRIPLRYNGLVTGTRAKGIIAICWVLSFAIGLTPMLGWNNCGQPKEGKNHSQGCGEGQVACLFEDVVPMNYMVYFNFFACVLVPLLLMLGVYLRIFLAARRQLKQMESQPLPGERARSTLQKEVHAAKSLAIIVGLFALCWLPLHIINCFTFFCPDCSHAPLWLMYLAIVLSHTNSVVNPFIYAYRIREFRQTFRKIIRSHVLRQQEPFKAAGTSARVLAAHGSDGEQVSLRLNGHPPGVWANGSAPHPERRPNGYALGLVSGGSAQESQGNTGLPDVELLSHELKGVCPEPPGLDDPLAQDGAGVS
# [6] = target: Adenosine receptors; A1 & A3 (Homo sapiens) (UniProt P30542+P0DMS8); assay: Selectivity for human adenosine A3 receptor over human adenosine A1 receptor; format: protein assay
# [7] = Selectivity for human adenosine A3 receptor over human adenosine A2A receptor
# [8] = target: T4, Adenosine receptor A3 (Homo sapiens) (UniProt P0DMS8); assay: Percentage inhibition of [125I]AB-MECA binding to human adenosine A3 receptor expressed in CHO cells at 1 uM; format: cell-based
# T4 sequence (whole entry): T2 sequence (P0DMS8 whole entry)
# [9] = target: T5, Adenosine receptor A1 (Bos taurus, UniProt P28190); assay: Displacement of [3H]CHA from adenosine A1 receptor in bovine cerebral cortical membranes; format: cell membranes
# T5 sequence (P28190 whole entry): T1 sequence (whole entry)
# [10] = target: T1, Adenosine receptor A1 (Bos taurus); assay: Percentage inhibition of [3H]CHA binding to adenosine A1 receptor in bovine cerebral cortical membranes at 34 uM; format: cell membranes
# [11] = target: T6, Adenosine receptor A1 (Homo sapiens, UniProt P30542); assay: Displacement of [3H]CHA from cloned human adenosine A1 receptor expressed in CHO cells; format: cell-based
# T6 sequence (P30542 whole entry): T3 sequence (whole entry)
# [12] = target: Adenosine receptor A2a (Bos taurus); assay: Displacement of [3H]CGS 21680 from adenosine A2A receptor in bovine striatal membranes
# [13] = tested on: Adenosine receptor A2a (Bos taurus); assay: Percentage inhibition of [3H]CGS 21680 binding to adenosine A2A receptor in bovine striatal membranes at 34 uM; settings: Striatum, Membrane
# [14] = target: T1, Adenosine receptor A1 (Bos taurus); assay: Percentage inhibition of [3H]CHA binding to adenosine A1 receptor in bovine cerebral cortical membranes at 10 uM; format: cell membranes
inhibition [1] [%],Ki [2] [nM],inhibition [3] [%],Ki [9] [nM],Structure (SMILES),other results
48,340,15.2,–,CCOC(=O)c1nc2c(O)nc3cc(Cl)ccc3n2n1,–
41,–,6.5,–,CCOC(=O)c1nc2c(O)nc3ccc(C)cc3n2n1,–
64,25,32.7,–,CCOC(=O)c1nc2c(O)nc3ccc(N)cc3n2n1,inhibition [4]: 33%; inhibition [5]: 22%; Ratio Ki [6]: > 400; Ratio Ki [7]: > 400
15,–,17,–,NC(=O)c1nc2c(O)nc3ccccc3n2n1,inhibition [8]: 32%
26,70.8,3.6,–,CCOC(=O)c1nc2c(O)nc3ccccc3n2n1,inhibition [4]: 5%; inhibition [5]: 0%; Ratio Ki [6]: > 150; Ratio Ki [7]: > 150
–,51.6,47,3220,O=C(OCc1ccccc1)c1nc2c(O)nc3ccccc3n2n1,inhibition [4]: 33%; inhibition [5]: 27%; Ratio Ki [6]: > 200; Ratio Ki [7]: > 200
–,–,–,–,COc1ccc(-c2nc3c(O)nc4ccccc4n3n2)cc1,inhibition [10]: 0%; inhibition [4]: 32%; inhibition [5]: 49%
–,2.9,–,150,COc1ccc(-c2nc3c(N)nc4ccc(Cl)cc4n3n2)cc1,Ki [11]: 36 nM; inhibition [5]: 21%
–,–,–,5,CCOC(=O)c1nc2c(N)nc3ccc(Cl)cc3n2n1,inhibition [8]: 15%; Ki [12]: 4900 nM
–,126,–,1000,O=c1[nH]c2ccc(Cl)cc2n2nc(-c3ccsc3)nc12,–
11,–,8.9,–,Cn1c(=O)c2ncnn2c2cc(Cl)ccc21,inhibition [8]: 0%
–,6,–,3660,Oc1nc2ccc(Cl)cc2n2nc(-c3ccco3)nc12,Ki [11]: 2740 nM; inhibition [5]: 33%; Ratio Ki [6]: 457; Ratio Ki [7]: > 1700; Ki [12]: 5160 nM
–,257,–,–,O=c1[nH]c2ccc(Cl)cc2n2nc(-c3cccs3)nc12,–
18,–,0,–,Cn1c(=O)c2nc(-c3ccccc3)nn2c2cc(Cl)ccc21,inhibition [8]: 19%
–,308,–,508,Cc1ccc2c(c1)n1nc(-c3ccccc3)nc1c(=O)n2C,–
–,78,–,1950,Oc1nc2ccc(Cl)cc2n2nc(-c3ccoc3)nc12,Ki [11]: 125 nM; Ratio Ki [6]: 1.6; inhibition [13]: 25.3%
–,396,–,268,O=c1[nH]c2ccccc2n2nc(-c3ccccc3)nc12,–
–,354,–,–,CCOC(=O)c1nc2c(=O)[nH]c3cc(N)ccc3n2n1,–
–,557,–,–,CCOC(=O)c1nc2c(=O)[nH]c3ccc(Cl)cc3n2n1,–
–,–,25,–,Cc1ccc2nc(O)c3nc(-c4ccccc4)nn3c2c1,–
–,82,–,578,O=C(NCc1ccccc1)c1nc2c(=O)[nH]c3ccccc3n2n1,Ki [11]: 205 nM
14,28.2,4,–,CCOC(=O)c1nc2c(=O)n(C(=O)OCC)c3ccccc3n2n1,inhibition [4]: 12%; inhibition [5]: 9%; Ratio Ki [6]: > 350; Ratio Ki [7]: > 350
0,420,2.9,–,CC(C)OC(=O)c1nc2c(O)nc3ccccc3n2n1,–

inhibition [1] [%],Ki [2] [nM],inhibition [3] [%],Ki [9] [nM],Structure (SMILES),other results
–,–,–,–,CCOC(=O)c1nc2c(=O)n(CC)c3ccccc3n2n1,inhibition [10]: 13.3%; inhibition [8]: 0%; inhibition [13]: 20.5%
–,33,–,–,Oc1nc2ccccc2n2nc(-c3ccco3)nc12,Ki [11]: 1930 nM
6.4,820,–,–,CCOC(=O)c1nc2c(=O)n(C)c3ccccc3n2n1,–
43,–,9,–,CCOC(=O)c1nc2c(O)nc3cc(N)ccc3n2n1,–
8,–,0,–,CCOC(=O)c1nc2c(=O)n(C)c3ccc(Cl)cc3n2n1,inhibition [8]: 60%
–,2,–,2940,Oc1nc2ccccc2n2nc(-c3cccs3)nc12,Ki [11]: 2 nM; Ratio Ki [6]: 1; inhibition [13]: 54%
0,–,23,–,Oc1nc2ccc(Cl)cc2n2ncnc12,inhibition [8]: 18.8%
–,673,–,14200,CCOC(=O)c1nc2c(=O)[nH]c3ccc(NC(C)=O)cc3n2n1,–
–,2.5,–,1440,COc1ccc(-c2nc3c(O)nc4ccc(C)cc4n3n2)cc1,Ki [11]: 2.86 nM; Ratio Ki [6]: 1.1; inhibition [13]: 5%
–,–,7.4,–,CCOC(=O)c1nc2c(O)nc3ccc([N+](=O)[O-])cc3n2n1,inhibition [14]: 58%; inhibition [8]: 0%
–,–,7,–,Oc1nc2ccccc2n2nc(-c3ccccc3)nc12,–
–,–,27,–,O=C(NCc1ccccc1)c1nc2c(O)nc3ccccc3n2n1,Ratio Ki [6]: 2.5
20,–,–,–,CCOC(=O)c1nc2c(O)nc3ccc(Cl)cc3n2n1,inhibition [13]: 7%
–,163,–,2400,Oc1nc2ccc(Cl)cc2n2nc(-c3ccccc3)nc12,–
–,108,–,–,CCOC(=O)c1nc2c(=O)[nH]c3ccc(C)cc3n2n1,–
–,–,–,–,Oc1nc2ccc(Cl)cc2n2nc(-c3cccs3)nc12,inhibition [10]: 54.2%
29,–,20,–,Oc1nc2ccccc2n2ncnc12,inhibition [8]: 53%
–,91.4,–,50,Nc1nc2ccc(Cl)cc2n2nc(-c3ccccc3)nc12,–
–,111,–,525,Cc1ccc2[nH]c(=O)c3nc(-c4ccccc4)nn3c2c1,–
–,25.8,–,1060,COc1ccc(-c2nc3c(=O)[nH]c4ccc(Cl)cc4n3n2)cc1,Ki [11]: 3.29 nM
–,–,–,–,CCOC(=O)c1nc2c(=O)n(O)c3ccccc3n2n1,inhibition [10]: 6.9%; inhibition [8]: 20%; inhibition [13]: 2%
–,–,8.8,1080,Cn1c(=O)c2nc(-c3ccccc3)nn2c2ccccc21,inhibition [8]: 30%
–,–,–,–,O=C(O)c1nc2c(O)nc3ccccc3n2n1,inhibition [10]: 10%; inhibition [8]: 6.4%; inhibition [13]: 0%
